These results are taken from patent US8785445B2 (Array BioPharma Inc., priority 2008, dated 2014).

The target in the assay is T1, human DP2 (Homo sapiens, UniProt Q9Y5Y4).
T1 construct: expressed in transfected cells; membranes prepared
T1 sequence (Q9Y5Y4 1-395): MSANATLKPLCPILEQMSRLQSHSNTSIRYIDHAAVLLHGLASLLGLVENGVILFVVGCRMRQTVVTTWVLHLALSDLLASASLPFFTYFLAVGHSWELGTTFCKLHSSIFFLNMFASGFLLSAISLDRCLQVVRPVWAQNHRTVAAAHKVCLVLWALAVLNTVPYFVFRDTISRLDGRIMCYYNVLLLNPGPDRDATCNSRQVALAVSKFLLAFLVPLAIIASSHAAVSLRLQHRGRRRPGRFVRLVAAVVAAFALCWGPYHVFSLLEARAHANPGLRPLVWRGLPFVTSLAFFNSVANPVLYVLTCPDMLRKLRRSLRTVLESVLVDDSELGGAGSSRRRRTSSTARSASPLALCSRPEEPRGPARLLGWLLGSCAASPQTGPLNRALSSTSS
In words: DP-2 binding inhibition assay (3H-PGD2, membranes of DP2-expressing K562 cells). Conditions: 4% HSA, read-out: EC50 (nM) 4% HSA. As to the method:
The coding sequence of human DP2 was introduced into the human Leukemic cell line K562 by electroporation and stable clones expressing DP2 were obtained by limiting dilution followed by cell surface staining with a rat monoclonal antibody specific for human DP2. Membranes were prepared from one of these DP2 expressing clones and used to determine the ability of the compounds of the present invention to inhibit binding of prostaglandin D2 (PGD2) to its receptor DP2 in the presence of one or more of the following serum protein concentrations, 0.1% BSA, 1% HSA or 4% HSA, by the following procedure. […] After incubation for 60 minutes at room temperature, the assay was transferred to a filtration plate (#MAFB; Millipore Corporation, Bedford, Mass.), and washed three times with binding buffer. Radioactivity was measured by a scintillation counter (TopCount; PerkinElmer Life Sciences, Boston, Mass.). Nonspecific binding was determined by incubations in the presence of 1 μM unlabeled PGD2 or 5 μM of a known DP2 antagonist. IC50 values for inhibition of binding were determined for each compound tested from the inflexion point of a standard 4-parameter logistical curve fitted to the values obtained.
By EC50 is commonly meant the concentration that produces a half-maximal response. Regarding `O=C(Nc1cnc(-c2ccc(C(F)(F)F)cc2)cn1)c1ccc(Oc2cc3c(cc2Cl)C(C(=O)O)CCO3)cc1` (centres unmarked) [Example 61, Sodium 6-chloro-7-(4-(5-(4-(trifluoromethyl)phenyl)pyrazin-2-ylcarbamoyl)phenoxy)chroman-4-carboxylate], the EC50 is 539 nM. In the case of `Cc1ccc(-c2ccc(NC(=O)c3ccc(Oc4cc5c(cc4Cl)C(C(=O)O)CCO5)cc3)nn2)cc1` (centres unmarked) [Example 62, Sodium 6-chloro-7-(4-(6-p-tolylpyridazin-3-ylcarbamoyl)phenoxy)chroman-4-carboxylate], the EC50 was found to be 327 nM. On to `COc1ccc(-c2ccc(NC(=O)c3ccc(Oc4cc5c(cc4Cl)C(C(=O)O)CCO5)cc3)nn2)cc1` (centres unmarked) [Example 63, Sodium 6-chloro-7-(4-(6-(4-methoxyphenyl)pyridazin-3-ylcarbamoyl)phenoxy)chroman-4-carboxylate], for which the concentration giving a half-maximal response (EC50) was found to be 1460 nM.

With `CSc1ccc(-c2ccc(NC(=O)c3ccc(Oc4cc5c(cc4Cl)C(C(=O)O)CCO5)cc3)nn2)cc1` (centres unmarked) [Example 64, Sodium 6-chloro-7-(4-(6-(4-(methylthio)phenyl)pyridazin-3-ylcarbamoyl)phenoxy)chroman-4-carboxylate], the EC50 was found to be 344 nM. The figure for `O=C(Nc1ccc(-c2ccc(Cl)c(Cl)c2)nn1)c1ccc(Oc2cc3c(cc2Cl)C(C(=O)O)CCO3)cc1` (centres unmarked) [Example 65, Sodium 6-chloro-7-(4-(6-(3,4-dichlorophenyl)pyridazin-3-ylcarbamoyl)phenoxy)chroman-4-carboxylate] is 96.2 nM; for `O=C(Nc1ccc(-c2ccc(F)cc2)nn1)c1ccc(Oc2cc3c(cc2Cl)C(C(=O)O)CCO3)cc1` (centres unmarked) [Example 66, Sodium 6-chloro-7-(4-(6-(4-fluorophenyl)pyridazin-3-ylcarbamoyl)phenoxy)chroman-4-carboxylate] it is 306 nM.

Regarding `O=C(Nc1ccc(-c2ccc(Cl)c(F)c2)nn1)c1ccc(Oc2cc3c(cc2Cl)C(C(=O)O)CCO3)cc1` (centres unmarked) [Example 67, Sodium 6-chloro-7-(4-(6-(4-chloro-3-fluorophenyl)pyridazin-3-ylcarbamoyl)phenoxy)chroman-4-carboxylate], the EC50 came out at 203 nM. Turning to `COc1ccc(-c2ccc(NC(=O)c3ccc(Oc4cc5c(cc4Cl)C(C(=O)O)CCO5)cc3)nn2)cn1` (centres unmarked) [Example 68, Sodium 6-chloro-7-(4-(6-(6-methoxypyridin-3-yl)pyridazin-3-ylcarbamoyl)phenoxy)chroman-4-carboxylate], the EC50 came out at 869 nM.

Turning to `COc1ccc(-c2ccc(NC(=O)c3ccc(Oc4cc5c(cc4Cl)C(C(=O)O)CCO5)cc3)nn2)c(OC)n1` (centres unmarked) [Example 69, Sodium 6-chloro-7-(4-(6-(2,6-dimethoxypyridin-3-yl)pyridazin-3-ylcarbamoyl)phenoxy)chroman-4-carboxylate], the EC50 amounted to 1780 nM. The figure for `O=C(Nc1ccc(-c2ccc(C(F)(F)F)cc2F)nn1)c1ccc(Oc2cc3c(cc2Cl)C(C(=O)O)CCO3)cc1` (centres unmarked) [Example 70, Sodium 6-chloro-7-(4-(6-(2-fluoro-4-(trifluoromethyl)phenyl)pyridazin-3-ylcarbamoyl)phenoxy)chroman-4-carboxylate] is 437 nM; for `O=C(Nc1ccc(-c2ccc(F)cc2F)nn1)c1ccc(Oc2cc3c(cc2Cl)C(C(=O)O)CCO3)cc1` (centres unmarked) [Example 71, Sodium 6-chloro-7-(4-(6-(2,4-difluorophenyl)pyridazin-3-ylcarbamoyl)phenoxy)chroman-4-carboxylate] it is 1510 nM; for `O=C(Nc1ccc(-c2ccc(Cl)cc2F)nn1)c1ccc(Oc2cc3c(cc2Cl)C(C(=O)O)CCO3)cc1` (centres unmarked) [Example 72, Sodium 6-chloro-7-(4-(6-(4-chloro-2-fluorophenyl)pyridazin-3-ylcarbamoyl)phenoxy)chroman-4-carboxylate] it is 1110 nM. The figure for `COc1ccc(-c2ccc(NC(=O)c3ccc(Oc4cc5c(cc4Cl)C(C(=O)O)CCO5)cc3)nc2)cn1` (centres unmarked) [Example 73, Sodium 6-chloro-7-(4-(6′-methoxy-3,3′-bipyridin-6-ylcarbamoyl)phenoxy)chroman-4-carboxylate] is 959 nM; for `COc1ccc(-c2ccc(NC(=O)c3ccc(Oc4cc5c(cc4Cl)C(C(=O)O)CCO5)cc3)nc2)c(OC)n1` (centres unmarked) [Example 74, Sodium 6-chloro-7-(4-(2′,6′-dimethoxy-3,3′-bipyridin-6-ylcarbamoyl)phenoxy)chroman-4-carboxylate] it is 794 nM. Turning to `O=C(Nc1ccc(-c2cccc(C(F)(F)F)c2)nc1)c1ccc(Oc2cc3c(cc2Cl)C(C(=O)O)CCO3)cc1` (centres unmarked) [Example 75, 6-Chloro-7-(4-(6-(3-(trifluoromethyl)phenyl)pyridin-3-ylcarbamoyl)phenoxy)chroman-4-carboxylic acid], the EC50 stood at 149 nM.

As for `O=C(Nc1ccc(-c2ccc(C(F)(F)F)cc2)nc1)c1ccc(Oc2cc3c(cc2Cl)C(C(=O)O)CCO3)cc1` (centres unmarked) [Example 76, Sodium 6-chloro-7-(4-(6-(4-(trifluoromethyl)phenyl)pyridin-3-ylcarbamoyl)phenoxy)chroman-4-carboxylate], the EC50 was 101 nM. For the compound `CCOc1cccc(NC(=O)c2ccc(Oc3cc4c(cc3Cl)C(C(=O)O)CCO4)cc2)n1` (centres unmarked) [Example 78, 6-Chloro-7-(4-(6-ethoxypyridin-2-ylcarbamoyl)phenoxy)chroman-4-carboxylic acid], the EC50 worked out at 740 nM. In the case of `O=C(Nc1cncc(-c2ccc(Cl)cc2)n1)c1ccc(Oc2cc3c(cc2Cl)C(C(=O)O)CCO3)cc1` (centres unmarked) [Example 79, 6-chloro-7-(4-(6-(4-chlorophenyl)pyrazin-2-ylcarbamoyl)phenoxy)chroman-4-carboxylic acid], the EC50 is 105 nM. Regarding `COc1nc(C(F)(F)F)ccc1CCNC(=O)c1ccc(Oc2cc3c(cc2Cl)C(C(=O)O)CCO3)cc1` (centres unmarked) [Example 80, Sodium 6-chloro-7-(4-(2-(2-methoxy-6-(trifluoromethyl)pyridin-3-yl)ethylcarbamoyl)phenoxy)chroman-4-carboxylate], the EC50 is 25.1 nM. Take `O=C(Nc1cccc(-c2ccc(F)c(F)c2)n1)c1ccc(Oc2cc3c(cc2Cl)C(C(=O)O)CCO3)cc1` (centres unmarked) [Example 81, 6-Chloro-7-(4-(6-(3,4-difluorophenyl)pyridin-2-ylcarbamoyl)phenoxy)chroman-4-carboxylic acid]: the EC50 was 97.9 nM. Regarding `O=C(Nc1cccc(-c2ccc(F)cc2F)n1)c1ccc(Oc2cc3c(cc2Cl)C(C(=O)O)CCO3)cc1` (centres unmarked) [Example 82, 6-Chloro-7-(4-(6-(2,4-difluorophenyl)pyridin-2-ylcarbamoyl)phenoxy)chroman-4-carboxylic acid], the EC50 came to 120 nM. As for `CSc1ccc(-c2cccc(NC(=O)c3ccc(Oc4cc5c(cc4Cl)C(C(=O)O)CCO5)cc3)n2)cc1` (centres unmarked) [Example 83, 6-Chloro-7-(4-(6-(4-(methylthio)phenyl)pyridin-2-ylcarbamoyl)phenoxy)chroman-4-carboxylic acid], the EC50 was 71.3 nM. The figure for `Cc1cc(-c2cccc(NC(=O)c3ccc(Oc4cc5c(cc4Cl)C(C(=O)O)CCO5)cc3)n2)ccc1F` (centres unmarked) [Example 84, 6-Chloro-7-(4-(6-(4-fluoro-3-methylphenyl)pyridin-2-ylcarbamoyl)phenoxy)chroman-4-carboxylic acid] is 144 nM. For the compound `CC(C)(C)c1ccc(-c2cccc(NC(=O)c3ccc(Oc4cc5c(cc4Cl)C(C(=O)O)CCO5)cc3)n2)cc1` (centres unmarked) [Example 85, 7-(4-(6-(4-tert-Butylphenyl)pyridin-2-ylcarbamoyl)phenoxy)-6-chlorochroman-4-carboxylic acid], the EC50 turned out to be 22.5 nM. The figure for `O=C(Nc1cccc(-c2ccc(Cl)c(F)c2)n1)c1ccc(Oc2cc3c(cc2Cl)C(C(=O)O)CCO3)cc1` (centres unmarked) [Example 86, 6-Chloro-7-(4-(6-(4-chloro-3-fluorophenyl)pyridin-2-ylcarbamoyl)phenoxy)chroman-4-carboxylic acid] is 49.5 nM. Consider `O=C(Nc1cccc(-c2ccc(Cl)cc2F)n1)c1ccc(Oc2cc3c(cc2Cl)C(C(=O)O)CCO3)cc1` (centres unmarked) [Example 87, 6-chloro-7-(4-(6-(4-chloro-2-fluorophenyl)pyridin-2-ylcarbamoyl)phenoxy)chroman-4-carboxylic acid], for which the EC50 stood at 41.4 nM. The figure for `Cc1ccc(-c2cccc(NC(=O)c3ccc(Oc4cc5c(cc4Cl)C(C(=O)O)CCO5)cc3)n2)cc1F` (centres unmarked) [Example 88, 6-Chloro-7-(4-(6-(3-fluoro-4-methylphenyl)pyridin-2-ylcarbamoyl)phenoxy)chroman-4-carboxylic acid] is 55.5 nM; for `O=C(Nc1cccc(-c2cc(F)cc(F)c2)n1)c1ccc(Oc2cc3c(cc2Cl)C(C(=O)O)CCO3)cc1` (centres unmarked) [Example 89, 6-chloro-7-(4-(6-(3,5-difluorophenyl)pyridin-2-ylcarbamoyl)phenoxy)chroman-4-carboxylic acid] it is 251 nM; for `O=C(Nc1cccc(-c2cccc(F)c2F)n1)c1ccc(Oc2cc3c(cc2Cl)C(C(=O)O)CCO3)cc1` (centres unmarked) [Example 90, 6-chloro-7-(4-(6-(2,3-difluorophenyl)pyridin-2-ylcarbamoyl)phenoxy)chroman-4-carboxylic acid] it is 166 nM.
